# Calls of active or inactive are those of the source. No cut-off for these calls is given here.
# Columns and labels:
# [1] = tested on: Keratinocyte; assay: Inhibition of CXCL10 gene expression in TNF-alpha-stimulated human keratinocytes; format: functional, cell-based
# [2] = tested on: Keratinocyte; assay: Inhibition of CXCL10 gene expression in LPS-stimulated human keratinocytes; format: functional, cell-based
# [3] = tested on: Keratinocyte; assay: Inhibition of CXCL10 protein secretion in LPS-stimulated human keratinocytes measured by ELISA assay; format: functional, cell-based
# [4] = tested on: Keratinocyte; assay: Inhibition of CXCL10 gene expression in IFN-gamma-stimulated human keratinocytes; format: functional, cell-based
# [5] = tested on: Keratinocyte; assay: Inhibition of CXCL10 protein secretion in poly (I:C)-stimulated human keratinocytes measured by ELISA assay; format: functional, cell-based
# [6] = tested on: Keratinocyte; assay: Inhibition of CXCL10 protein secretion in TNF-alpha-stimulated human keratinocytes measured by ELISA assay; format: functional, cell-based
# [7] = tested on: Keratinocyte; assay: Inhibition of CXCL10 gene expression in poly (I:C)-stimulated human keratinocytes; format: functional, cell-based
# [8] = tested on: Keratinocyte; assay: Inhibition of CXCL10 protein secretion in IFN-gamma-stimulated human keratinocytes measured by ELISA assay; format: functional, cell-based
# [9] = species: Rattus norvegicus; assay: Inhibition of CXCL10 gene expression in streptozotocin (STZ)-induced diabetes induced retinopathy model of rat assessed as decrease in amount of CXCL10 in retina measured by ELISA assay; format: functional
# [10] = species: Rattus norvegicus; assay: Antiangiogenic activity in streptozotocin (STZ)-induced diabetes induced retinopathy model of rat assessed as decrease in retinal vascular permeability measured by Evans blue dye metho; format: functional, organism-based
# [11] = tested on: Mus musculus; assay: In vivo inhibition of CXCL10 gene expression in experimental autoimmune uveitis (EAU) model of C57BL/6 mouse; format: functional, organism-based
structure (smiles),measurement,setting,value
COc1ccnc(CC(O)c2nc3cc(OC(F)(F)F)ccc3[nH]2)c1C (stereo not drawn),inhibition,[1],Active
COc1c(C)cnc(CS(=O)(=O)c2nc3cc(OC(F)F)ccc3[nH]2)c1C,inhibition,[2],Active
COc1ccc2[nH]c(S(=O)(=O)Cc3ncc(C)c(OC)c3C)nc2c1,inhibition,[3],Active
COc1ccc2[nH]c([S@+]([O-])Cc3ncc(C)c(OC)c3C)nc2c1,inhibition,[4],Active
COCCCOc1ccnc(C[S+]([O-])c2nc3ccccc3[nH]2)c1C (stereo not drawn),inhibition,[5],Active
same,inhibition,[6],Active
same,inhibition,[2],Active
COc1ccnc(CS(=O)(=O)c2nc3ccccc3[nH]2)c1OC,inhibition,[7],Active
Cc1c(OCC(F)(F)F)ccnc1C[S+]([O-])c1nc2ccccc2[nH]1 (stereo not drawn),inhibition,[4],Active
same,inhibition,[3],Active
same,inhibition,[1],Active
same,inhibition,[2],Active
Cc1c(OCC(F)(F)F)ccnc1CS(=O)(=O)c1nc2cc(-n3cccc3)ccc2[nH]1,inhibition,[1],Active
COc1ccc2[nH]c(C(=O)Cc3ncc(C)c(OC)c3C)nc2c1,inhibition,[7],Active
COc1ccnc(CC(O)c2nc3ccccc3[nH]2)c1C (stereo not drawn),inhibition,[7],Active
same,inhibition,[5],Active
COc1ccnc(C[S+]([O-])c2nc3cc(-n4cccc4)ccc3[nH]2)c1C (stereo not drawn),inhibition,[5],Active
same,inhibition,[6],Active
Cc1c(OCC(F)(F)F)ccnc1CC(C)(O)c1nc2cc(OC(F)F)ccc2[nH]1 (stereo not drawn),inhibition,[3],Active
COCCCOc1ccnc(C[S@+]([O-])c2nc3cc(OC(F)(F)F)ccc3[nH]2)c1C,inhibition,[3],Active
COCCCOc1ccnc(CC(=O)c2nc3cc(OC(F)(F)F)ccc3[nH]2)c1C,inhibition,[7],Active
COc1ccnc(CC(C)(O)c2nc3cc(-n4cccc4)ccc3[nH]2)c1OC (stereo not drawn),inhibition,[8],Active
COc1ccnc(CC(O)c2nc3cc(OC(F)(F)F)ccc3[nH]2)c1OC (stereo not drawn),inhibition,[6],Active
COc1c(C)cnc(C[S@@+]([O-])c2nc3cc(OC(F)F)ccc3[nH]2)c1C,inhibition,[3],Active
COc1ccnc(C[S+]([O-])c2nc3cc(OC(F)F)ccc3[nH]2)c1OC (stereo not drawn),inhibition,[9],Active
same,inhibition,[7],Active
same,inhibition,[1],Active
same,Activity,[10],Active
same,inhibition,[8],Active
same,inhibition,[2],Active
COc1c(C)cnc(C[S@@](=O)c2nc3ccccc3[nH]2)c1C,inhibition,[6],Active
Cc1cnc(CC(O)c2nc3cc(OC(F)F)ccc3[nH]2)c(C)c1OCC(F)(F)F (stereo not drawn),inhibition,[8],Active
COc1c(C)cnc(CC(O)c2nc3cc(-n4cccc4)ccc3[nH]2)c1C (stereo not drawn),inhibition,[4],Active
COc1ccc2[nH]c([S+]([O-])Cc3ncc(C)c(OC)c3C)nc2c1 (stereo not drawn),inhibition,[9],Active
same,inhibition,[7],Active
same,inhibition,[5],Active
same,inhibition,[3],Active
same,inhibition,[1],Active
same,Activity,[10],Active
same,inhibition,[8],Active
same,inhibition,[11],Active
COc1ccc2[nH]c(S(=O)(=O)Cc3nccc(OC)c3C)nc2c1,inhibition,[4],Active
Cc1cnc(CC(=O)c2nc3ccccc3[nH]2)c(C)c1OCC(F)(F)F,inhibition,[5],Active
COCCCOc1ccnc(CS(=O)(=O)c2nc3ccccc3[nH]2)c1C,inhibition,[8],Active
COc1c(C)cnc(CC(O)c2nc3ccccc3[nH]2)c1C (stereo not drawn),inhibition,[1],Active
Cc1c(OCC(F)(F)F)ccnc1CS(=O)(=O)c1nc2cc(OC(F)F)ccc2[nH]1,inhibition,[4],Active
same,inhibition,[2],Active
COc1ccnc(CS(=O)(=O)c2nc3cc(OC(F)F)ccc3[nH]2)c1OC,inhibition,[8],Active
COc1ccc2[nH]c([S@@+]([O-])Cc3nccc(OC)c3C)nc2c1,inhibition,[4],Active
same,inhibition,[6],Active
COc1c(C)cnc(C[S@+]([O-])c2nc3cc(OC(F)F)ccc3[nH]2)c1C,inhibition,[2],Active
COc1ccnc(CC(C)(O)c2nc3cc(OC(F)(F)F)ccc3[nH]2)c1OC (stereo not drawn),inhibition,[6],Active
COc1c(C)cnc(CS(=O)(=O)c2nc3cc(-n4cccc4)ccc3[nH]2)c1C,inhibition,[5],Active

# From ChEMBL document CHEMBL5052834, “CXCL10 Inhibitors” (2021)
